The assay has as its system thymocytes of surrenalectomized rats. Put plainly: Antiglucocorticoidal activity, incorporation of tritiated uridine in thymocytes. Format: cell-based. Conditions: for % inhibition of effect of Dexamethasone (symbol) / inhibition at 1 µM: 5 × 10^-8 M dexamethasone + test product 10^-6 M; for inhibition at 0.1 µM / inhibition at 0.01 µM / inhibition at 1 µM: Rattus norvegicus, Thymocyte, read-out: % inhibition of effect of Dexamethasone; for inhibition at 0.1 µM: 5 × 10^-8 M dexamethasone + test product 10^-7 M; for inhibition at 0.01 µM: 5 × 10^-8 M dexamethasone + test product 10^-8 M. How it is done:
III. Antiglucocorticoidal Activity
The test used was that of Dausse et al [Molecular Pharmacology, Vol. 13 (1977), p. 948-955] entitled "The relationship between glucocorticoid structure and effects upon thymocytes" for […] thymocytes. The thymocytes of surrenalectomized rats were incubated at 37° C. for 3 hours in a nutritive medium containing 5×10^-8 M of dexamethasone in the presence or absence of the test compound at different concentrations. Tritiated uridine was added and incubation was continued for one hour. The incubates were cooled and treated with a 5% trifluoroacetic acid solution and the mixture was filtered with Whatman GF/A paper. The filter was washed 3 times with a 5% trifluoroacetic acid solution and retained radioactivity on the filter was determined.

The results in this text go back to patent US5043332A, “Novel 11β-substituted -19-nor-steriods” (priority 1981, dated 1991).

In general, inhibition refers to the change of the read-out against control, counted positive when it falls.

With `CC#C[C@]1(O)CC[C@H]2[C@@H]3CCc4cc(O)ccc4[C@H]3[C@@H](c3ccc(N(C)C)cc3)C[C@@]21C` [2 (17 OH), 11β-(4-dimethylaminophenyl)-17α-(prop-1-ynyl)-Δ^1,3,5(10) -estratriene-3,17β-diol], the “% inhibition of effect of Dexamethasone (symbol)” value is reported as “* (A dose of 10^-6 M inhibited the effect of dexamethasone totally)”, the inhibition at 0.1 µM is 91% and the inhibition at 0.01 µM was 41%.

Consider `C/C=C/[C@]1(O)CC[C@H]2[C@@H]3CCC4=C(CCC(=O)C4)[C@H]3[C@@H](c3cccc(OC)c3)C[C@@]21C` [6 (17α propenyle), 11β-(3-methoxyphenyl)-17α-(E)-(prop-1-enyl)-Δ^5(10) -estrene-17β-ol-3-one], for which the inhibition at 1 µM was determined as 56%, the inhibition at 0.1 µM was 0% and the inhibition at 0.01 µM worked out at 0%.

As for `CC#C[C@]1(O)CC[C@H]2[C@@H]3CCC4=CC(=O)C(=COC(C)=O)CC4=C3[C@@H](c3ccc(N(C)C)cc3)C[C@@]21C` [Example 3, 2-(acetyloxymethylene)-11β-(4-dimethylaminophenyl)-17α-(prop-1-ynyl)-Δ^4,9-estradiene-17β-ol-3-one], the inhibition at 1 µM was found to be 60%, the inhibition at 0.1 µM came out at 0% and the inhibition at 0.01 µM was found to be 0%.

Turning to `CC#C[C@]1(O)CC[C@H]2[C@@H]3CCC4=CC(=O)C(=CN5CCOCC5)CC4=C3[C@@H](c3ccc(N(C)C)cc3)C[C@@]21C` [Example 4, 2-(4-morpholinylmethylene)-11β-(4-dimethylaminophenyl)-17α-(prop-1-ynyl)-Δ^4,9-estradiene-17β-ol-3-one], the inhibition at 1 µM was 51%, the inhibition at 0.1 µM is 0% and the inhibition at 0.01 µM turned out to be 0%.

Regarding `CC#C[C@]1(O)CC[C@H]2[C@@H]3CCC4=C(CCC(=O)C4)[C@H]3[C@@H](c3cccc(OC)c3)C[C@@]21C` [Example 6, 11β-(3-methoxyphenyl)-17α-(prop-1-ynyl)-Δ^5(10) -estrene-17β-ol-3-one], the inhibition at 1 µM came out at 68%, the inhibition at 0.1 µM amounted to 0% and the inhibition at 0.01 µM is 0%.

Turning to `CC#C[C@]1(O)CC[C@H]2[C@@H]3CCC4=Cc5oncc5CC4=C3[C@@H](c3ccc(N(C)C)cc3)C[C@@]21C` [Example 7, 11β-(4-dimethylaminophenyl)-17α-(prop-1-ynyl)-isoxazolo[4,5-b]-Δ^4,9-estradiene-17β-ol], the “% inhibition of effect of Dexamethasone (symbol)” value is “* (A dose of 10^-6 M inhibited the effect of dexamethasone totally)”, the inhibition at 0.1 µM was determined as 27% and the inhibition at 0.01 µM was determined as 0%.

As for `C[C@@H]1C[C@H]2[C@@H]3CCC4=CC(=O)C=C[C@]4(C)[C@@]3(F)[C@@H](O)C[C@]2(C)[C@@]1(O)C(=O)CO` [dexamethasone, reference compound], for the setting “glucocorticoid alone”, the “effect on incorporation of tritiated uridine (in words)” value is “provoked a lessening of incorporation of tritiated uridine”.
